Assay [1] relates to NCI-H69. The assay can be described thus: Cell killing in NCI-H69 by CGT (CellTiter-Glo). The assay is classed as cell-based. The note with it: NCI-H69, 96 h; for Bottom (Inhibition at Lowest Point) / Top (Inhibition at Highest Point): Inh% relative to DMSO control, 4-parameter fit. On the procedure:
Approximately 5 µL of the PDC was added to the corresponding wells of the plate, and compared with DMSO (control, without the PDC of the present application), PTX, MMAE, and Dxd wells. The final concentration of DMSO in each well was 0.2%; • (5) The cells were incubated in a 5% CO2 incubator at 37°C for 96 h; • (6) The cell culture plate was equilibrated to room temperature, and 50 µL of CellTiter-Glo® Reagent was added to each well; • (7) The plate was placed on a shaker for 2 min to ensure complete cell lysis; • (8) After mixing, the plate was placed at room temperature to react for 10 min. The fluorescence value (in RLU) was read when the signal became stable. • c) Data analysis • (1) The inhibition (Inh %) relative to the DMSO control was calculated as follows: Inhibition (Inh%)= 100 -(RLU of compound - RLU of DMSO control)/ (RLU of DMSO control - RLU of blank)*100% • (2) The data were analyzed using Graphpad 5.0 software. A 4-parameter equation was fitted to generate a concentration-response curve to obtain the IC50. Table 3: Test Results of Cell Killing in NCI-H69

Assay [2] addresses T1, SSTR2 (Homo sapiens, UniProt P30874).
T1 construct: expressed in transfected cells; host or cells: CHO cells (SSTR2/CHO)
The assay can be described thus: SSTR2 cAMP test. The assay is classed as cell-based. The note with it: for activity at 50 µM: Max Dose 50000 nM; for EC50: SSTR2/CHO cells, Forskolin, cAMP activation rate. On the procedure:
• 1) Compound preparation: The test compound was diluted by 4-fold with DMSO to obtain 10 different concentration points. Approximately 100 nL of the diluted compound was then transferred to a cell reaction plate and centrifuged for later use. • 2) Cell preparation:The cultured SSTR2/CHO cells were collected into a sterile centrifuge tube, and the supernatant was discarded by centrifugation. • 3) The cells were resuspended in assay buffer, counted using a Vi-cell counter, and diluted with assay buffer. • 4) Approximately 100 nL of 100 µM Forskolin was transferred into the cell reaction plate using an Echo and centrifuged. Then, 10 µL of assay buffer containing the cells was added and incubated. • 5) Approximately 10 µL of cAMP detection reagent solution was added to the corresponding wells of the cell reaction plate, and incubated at room temperature in the dark. • 6) The plate was read using a microplate reader. The final value was determined as the ratio of OD at 665 nm to that at 615 nm. • 7) The cAMP value was calculated for each well: Activity (%)=(signal value of sample well - mean signal value of low-signal control wells)/ (mean signal value of high-signal control wells - mean signal value of low-signal control wells). Fitting was performed using the "Nonlinear regression (curve fit)-log(agonist) vs. response -- Variable slope" model in GraphPad Prism 5.0, with the log-transformed compound concentration on the x-axis and cAMP activation rate on the y-axis. The EC50 value of the sample was calculated accordingly. Table 2: SSTR2 cAMP Test Results

Read-outs that look alike come from different tables or passages of the source. *1 amine or outer side, *2 acyl side, *3 side chain or, on linkers, in order; H or OH if unused. Where a SMILES comes first, the peptide text is derived from it. Bridges are numbered along the chain shown (N, C = ends). Roman numbers before positions name the chains, in order. [ ]: non-standard residue; d: D form. The star is where a group is joined. X4 = CC(=O)N[C@@H](CSC1CC(=O)N(CCCCCC(=O)[*:2])C1=O)C(=O)NCCOCCOCCOCCOCCOCCOCCC(=O)[*:1]; Exatecan = CC[C@@]1(O)C(=O)OCc2c1cc1n(c2=O)Cc2c-1nc1cc(F)c(C)c3c1c2[C@@H](N*)CC3; X1 = O=C(O)[C@H]1O[C@@H](Oc2ccc(COC(=O)[*:2])cc2N[*:1])[C@H](O)[C@@H](O)[C@@H]1O; Hexanoyl(6-succinimido-3yl) = O=C1CC([*:1])C(=O)N1CCCCCC(=O)[*:2]; Dolaproine = CO[C@@H]([C@@H]1CCCN1)[C@@H](C)C(=O)O; X3 = O=C(CCCCCN1C(=O)CC([*:1])C1=O)NCCC(=O)[*:2]; Dil = CC[C@H](C)[C@H](NC)[C@@H](CC(=O)O)OC; PABC = O=C(OCc1ccc(N[*:1])cc1)[*:2]; PEG6 = NCCOCCOCCOCCOCCOCCOCCC(=O)O; NHCH2OCH2CO = O=C(COCN[*:1])[*:2]; X2 = C[C@@H](N*)[C@@H](O)c1ccccc1; Cit = NC(=O)NCCC[C@H](N)C(=O)O; NMeV = CN[C@H](C(=O)O)C(C)C; AEEA = NCCOCCOCC(=O)O

T1 sequence (P30874 whole entry): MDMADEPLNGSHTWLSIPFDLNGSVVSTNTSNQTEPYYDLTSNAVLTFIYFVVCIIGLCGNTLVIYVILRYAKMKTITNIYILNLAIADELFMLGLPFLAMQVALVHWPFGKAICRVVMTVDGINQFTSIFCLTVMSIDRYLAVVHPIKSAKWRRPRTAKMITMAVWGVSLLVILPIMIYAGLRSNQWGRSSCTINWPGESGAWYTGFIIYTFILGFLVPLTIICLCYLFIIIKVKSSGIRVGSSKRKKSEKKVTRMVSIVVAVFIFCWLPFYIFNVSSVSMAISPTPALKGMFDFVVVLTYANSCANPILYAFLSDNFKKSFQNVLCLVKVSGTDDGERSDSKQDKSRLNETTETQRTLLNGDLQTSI

Regarding `CC[C@H](C)[C@@H]([C@@H](CC(=O)N1CCC[C@H]1[C@H](OC)[C@@H](C)C(=O)N[C@H](C)[C@@H](O)c1ccccc1)OC)N(C)C(=O)[C@@H](NC(=O)[C@H](C(C)C)N(C)C(=O)OCc1ccc(O[C@@H]2O[C@H](C(=O)O)[C@@H](O)[C@H](O)[C@H]2O)c(NC(=O)CCNC(=O)CCCCCN2C(=O)CC(SC[C@H](NC(C)=O)C(=O)NCCOCCOCC(=O)NCCOCCOCC(=O)NCCOCCOCC(=O)N[C@@H](CCCNC(=N)N)C(=O)N[C@@H](CCCNC(=N)N)C(=O)N[C@@H](CC(C)C)C(=O)N[C@@H](Cc3ccccc3)C(=O)N[C@H]3CSSC[C@@H](C(=O)N[C@H](C(=O)N[C@@H](Cc4c[nH]c5ccccc45)C(=O)N[C@@H](CCCNC(=N)N)C(=O)N[C@@H](CC(=O)O)C(N)=O)[C@@H](C)O)NC(=O)[C@H]([C@@H](C)O)NC(=O)[C@H](CCCCN)NC(=O)[C@@H](Cc4c[nH]c5ccccc45)NC(=O)[C@H](Cc4ccc(O)cc4)NC3=O)C2=O)c1)C(C)C` (stereo partly drawn) [Example 4, Ac-Cys(MC-betaglucuronide-MMAE)-AEEA-AEEA-AEEA-Arg-Arg-Leu-Phe-[Cys-Tyr-D-Trp-Lys-Thr-Cys]-Thr-Trp-Arg-Asp-NH2] (I: Ac-C[AEEA][AEEA][AEEA]RRLFCY[dW]KTCTWRD-NH2 / II: [X1][NMeV]V[Dil][Dolaproine]-X2; linker I:1-II:N via X3; disulfide I:9-I:14), in assay [1], the “Bottom (Inhibition at Lowest Point)” value worked out at 3.88 and the “Top (Inhibition at Highest Point)” value was found to be 75.08. In assay [2], this compound yielded an activity at 50 µM of 95.2%.
In turn, `CC[C@@]1(O)C(=O)OCc2c1cc1n(c2=O)Cc2c-1nc1cc(F)c(C)c3c1c2[C@@H](NC(=O)COCNC(=O)CNC(=O)[C@H](Cc1ccccc1)NC(=O)CNC(=O)CNC(=O)CCCCCN1C(=O)CC(SC[C@H](NC(C)=O)C(=O)NCCOCCOCCOCCOCCOCCOCCC(=O)NCCCC[C@H](NC(=O)CCOCCOCCOCCOCCOCCOCCNC(=O)[C@H](CSC2CC(=O)N(CCCCCC(=O)NCC(=O)NCC(=O)N[C@@H](Cc4ccccc4)C(=O)NCC(=O)NCOCC(=O)N[C@H]4CCc5c(C)c(F)cc6nc7c(c4c56)Cn4c-7cc5c(c4=O)COC(=O)[C@]5(O)CC)C2=O)NC(C)=O)C(=O)N[C@@H](CCCCNC(=O)CCOCCOCCOCCOCCOCCOCCNC(=O)[C@H](CSC2CC(=O)N(CCCCCC(=O)NCC(=O)NCC(=O)N[C@@H](Cc4ccccc4)C(=O)NCC(=O)NCOCC(=O)N[C@H]4CCc5c(C)c(F)cc6nc7c(c4c56)Cn4c-7cc5c(c4=O)COC(=O)[C@]5(O)CC)C2=O)NC(C)=O)C(=O)NCCOCCOCCOCCOCCOCCOCCC(=O)N[C@@H](CCCNC(=N)N)C(=O)N[C@@H](CCCNC(=N)N)C(=O)N[C@@H](CC(C)C)C(=O)N[C@@H](Cc2ccccc2)C(=O)N[C@H]2CSSC[C@@H](C(=O)N[C@H](C(=O)N[C@@H](Cc4c[nH]c5ccccc45)C(=O)N[C@@H](CCCNC(=N)N)C(=O)N[C@@H](CC(=O)O)C(N)=O)[C@@H](C)O)NC(=O)[C@H]([C@@H](C)O)NC(=O)[C@H](CCCCN)NC(=O)[C@@H](Cc4c[nH]c5ccccc45)NC(=O)[C@H](Cc4ccc(O)cc4)NC2=O)C1=O)CC3` (stereo partly drawn) [Example 7, Ac-Cys(MC-Gly-Gly-Phe-Gly-NH-CH2-Dxd)-PEG6-Lys(Ac-Cys(MC-Gly-Gly-Phe-Gly-NH-CH2-Dxd)-PEG6)-Lys(Ac-Cys(MC-Gly-Gly-Phe-Gly-NH-CH2-Dxd)-PEG6)-PEG6-Arg-Arg-Leu-Phe-[Cys-Tyr-D-Trp-Lys-Thr-Cys]-Thr-Trp-Arg-Asp-NH2] (I: Ac-C[PEG6]KK[PEG6]RRLFCY[dW]KTCTWRD-NH2 / II: GGFG[NHCH2OCH2CO]-Exatecan / III: GGFG[NHCH2OCH2CO]-Exatecan / IV: GGFG[NHCH2OCH2CO]-Exatecan; linker I:1-III:N via Hexanoyl(6-succinimido-3yl); linker I:3-II:N, I:4-IV:N via X4; disulfide I:10-I:15) showed an IC50 in assay [1] of 122 nM. In assay [2], this compound showed an activity at 50 µM of 54.4% and an EC50 of 23400 nM.
`CC[C@@]1(O)C(=O)OCc2c1cc1n(c2=O)Cc2c-1nc1cc(F)c(C)c3c1c2[C@@H](NC(=O)CO)CC3` [Dxd] registered an IC50 in assay [1] (Homo sapiens) of 7.53 nM. In assay [1], the “Bottom (Inhibition at Lowest Point)” value is on record as “= 0.0” and the “Top (Inhibition at Highest Point)” value was 98.19.
`CC[C@@]1(O)C(=O)OCc2c1cc1n(c2=O)Cc2c-1nc1cc(F)c(C)c3c1c2[C@@H](NC(=O)COCNC(=O)CNC(=O)[C@H](Cc1ccccc1)NC(=O)CNC(=O)CNC(=O)CCCCCN1C(=O)CC(SC[C@H](NC(C)=O)C(=O)NCCOCCOCCOCCOCCOCCOCCC(=O)N[C@@H](CCCNC(=N)N)C(=O)N[C@@H](CCCNC(=N)N)C(=O)N[C@@H](CC(C)C)C(=O)N[C@@H](Cc2ccccc2)C(=O)N[C@H]2CSSC[C@@H](C(=O)N[C@H](C(=O)N[C@@H](Cc4c[nH]c5ccccc45)C(=O)N[C@@H](CCCNC(=N)N)C(=O)N[C@@H](CC(=O)O)C(N)=O)[C@@H](C)O)NC(=O)[C@H]([C@@H](C)O)NC(=O)[C@H](CCCCN)NC(=O)[C@@H](Cc4c[nH]c5ccccc45)NC(=O)[C@H](Cc4ccc(O)cc4)NC2=O)C1=O)CC3` (stereo partly drawn) [Example 6, Ac-Cys(MC-Gly-Gly-Phe-Gly-NH-CH2-Dxd)-PEG6-Arg-Arg-Leu-Phe-[Cys-Tyr-D-Trp-Lys-Thr-Cys]-Thr-Trp-Arg-Asp-NH2] (I: Ac-C[PEG6]RRLFCY[dW]KTCTWRD-NH2 / II: GGFG[NHCH2OCH2CO]-Exatecan; linker I:1-II:N via Hexanoyl(6-succinimido-3yl); disulfide I:7-I:12) returned an IC50 in assay [1] of 276 nM. Also, in assay [2], the activity at 50 µM turned out to be 67.8% and the EC50 was determined as 148 nM.
Consider `CCC(C)C(C(CC(=O)N1CCCC1C(OC)C(C)C(=O)NC(C)C(O)c1ccccc1)OC)N(C)C(=O)C(NC(=O)C(NC)C(C)C)C(C)C` (centres unmarked) [MMAE], for which the IC50 in assay [1] (Homo sapiens, read-out: IC50) was found to be 0.57 nM. In assay [1], the “Bottom (Inhibition at Lowest Point)” value is given as 0.31 and the “Top (Inhibition at Highest Point)” value came to 85.99.
In assay [2], `CC[C@H](C)[C@@H]([C@@H](CC(=O)N1CCC[C@H]1[C@H](OC)[C@@H](C)C(=O)N[C@H](C)[C@@H](O)c1ccccc1)OC)N(C)C(=O)[C@@H](NC(=O)[C@H](C(C)C)N(C)C(=O)OCc1ccc(NC(=O)[C@H](CCCNC(N)=O)NC(=O)[C@@H](NC(=O)CCCCCN2C(=O)CC(SC[C@H](NC(C)=O)C(=O)NCCOCCOCCOCCOCCOCCOCCC(=O)N[C@@H](CCCNC(=N)N)C(=O)N[C@@H](CCCNC(=N)N)C(=O)N[C@@H](CC(C)C)C(=O)N[C@@H](Cc3ccccc3)C(=O)N[C@H]3CSSC[C@@H](C(=O)N[C@H](C(=O)N[C@@H](Cc4c[nH]c5ccccc45)C(=O)N[C@@H](CCCNC(=N)N)C(=O)N[C@@H](CC(=O)O)C(N)=O)[C@@H](C)O)NC(=O)[C@H]([C@@H](C)O)NC(=O)[C@H](CCCCN)NC(=O)[C@@H](Cc4c[nH]c5ccccc45)NC(=O)[C@H](Cc4ccc(O)cc4)NC3=O)C2=O)C(C)C)cc1)C(C)C` (stereo partly drawn) [Example 3, Ac-Cys(MC-Val-Cit-PABC-MMAE)-PEG6-Arg-Arg-Leu-Phe-[Cys-Tyr-D-Trp-Lys-Thr-Cys]-Thr-Trp-Arg-Asp-NH2] (I: Ac-C[PEG6]RRLFCY[dW]KTCTWRD-NH2 / II: V[Cit][PABC][NMeV]V[Dil][Dolaproine]-X2; linker I:1-II:N via Hexanoyl(6-succinimido-3yl); disulfide I:7-I:12) showed an activity at 50 µM of 95.4% and an EC50 of 559 nM.
As for `CC(=O)O[C@H]1C(=O)[C@@]2(C)[C@H]([C@H](OC(=O)c3ccccc3)[C@]3(O)C[C@H](OC(=O)[C@H](O)[C@@H](NC(=O)c4ccccc4)c4ccccc4)C(C)=C1C3(C)C)[C@]1(OC(C)=O)CO[C@@H]1C[C@@H]2O` [PTX], in assay [1], the “Bottom (Inhibition at Lowest Point)” value is 0.47 and the “Top (Inhibition at Highest Point)” value was determined as 78.37. Further, the IC50 in assay [1] (read-out: IC50) stood at 3.74 nM.

The record behind these values is patent EP4772530A1, “PEPTIDE TARGETING SOMATOSTATIN RECEPTOR, DRUG CONJUGATE AND USE THEREOF” (Mainline Biosciences (Shanghai) Co., Ltd., priority 2023, dated 2025).
